“Also recorded” adds a separate entry of the source.
Tested on: barnacles
Test: Paint efficacy testing: coated fiberglass rods suspended in the ocean, number of barnacles counted monthly
Type: in vivo
Conditions: paint formulations on rods in the ocean, Beaufort, N.C. coast, 2004
Protocol: A series of nine paint formulations containing 4-bromo-2-(4-chlorophenyl)-5-(trifluoromethyl)-1H-pyrrole-3-carbonitrile (referred to in below table as Pyrrole) and zinc pyrithione (ZPT) were tested by Duke University off the Beaufort, N.C. coast in 2004 for their antifouling effectiveness against barnacles and other fouling organisms. The formulations were created in the laboratory by the addition of various amounts of biocides to a resin base-formulation (vinyl resin/wood rosin with Zn oxide filler). Formulations include 4-bromo-2-(4-chlorophenyl)-5-(trifluoromethyl)-1H-pyrrole-3-carbonitrile alone and in combination with ZPT. A solvent based zinc oxide coating was used as a control. Unprimed fiberglass rods (8 mm diameter×11 cm length) were dip-coated with each formulation (5 rods/formulation) and suspended from a test rack in the ocean (one-meter below the surface). Rods were evaluated each month for number of barnacles and bryozoans. The most promising results came from the formulations in which 4-bromo-2-(4-chlorophenyl)-5-(trifluoromethyl)-1H-pyrrole-3-carbonitrile was blended with ZPT (See Table 1 below).

With `N#Cc1c(-c2ccc(Cl)cc2)[nH]c(C(F)(F)F)c1Br` [4-bromo-2-(4-chlorophenyl)-5-(trifluoromethyl)-1H-pyrrole-3-carbonitrile] the “antifouling effectiveness against barnacles and other fouling organisms (in words)” value was “effective antifouling agent for hard fouling organisms such as barnacles; also recorded: performs better with ZPT as a co-biocide than it does alone”.
